According to PubChem BioAssay AID2060889 (Molecular Pharmacology Branch, DTP, NCI, 2025):

Test system: LG0567-F671-PDC complex spheroids viability
Assay: Anticancer human tumor LG0567-F671-PDC patient-derived lung adenocarcinoma cell line growth inhibition [RAS]
Conditions: for IC50: curve of first compound; for viability, T/C: stronger effect = lower value
In short: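 Agents were tested in combination matrices in half-log decrements from a top concentration at or near clinical Cmax (10 microM if undetermined). Targets were multi-cell spheroids of tumour lines plus HUVEC and MSC stromal cells.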

[1] = second compound 0.0316 µM, first compound 0.0316 µM
[2] = second compound 0.0316 µM, first compound 0.1 µM
[3] = second compound 0.0316 µM, first compound 0.316 µM
[4] = second compound 0.0316 µM, first compound 1 µM
[5] = second compound 0.1 µM, first compound 0.0316 µM
[6] = second compound 0.1 µM, first compound 0.1 µM
[7] = second compound 0.1 µM, first compound 0.316 µM
[8] = second compound 0.1 µM, first compound 1 µM
[9] = second compound 0.316 µM, first compound 0.0316 µM
[10] = second compound 0.316 µM, first compound 0.1 µM
[11] = second compound 0.316 µM, first compound 0.316 µM
[12] = second compound 0.316 µM, first compound 1 µM
[13] = second compound 1 µM, first compound 0.0316 µM
[14] = second compound 1 µM, first compound 0.1 µM
[15] = second compound 1 µM, first compound 0.316 µM
[16] = second compound 1 µM, first compound 1 µM
[17] = second compound 3.16 µM, first compound 0.0316 µM
[18] = second compound 3.16 µM, first compound 0.1 µM
[19] = second compound 3.16 µM, first compound 0.316 µM
[20] = second compound 3.16 µM, first compound 1 µM
[21] = second compound 10 µM, first compound 0.0316 µM
[22] = second compound 10 µM, first compound 0.1 µM
[23] = second compound 10 µM, first compound 0.316 µM
[24] = second compound 10 µM, first compound 1 µM
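Further: spheroids exposed to compound for seven days before readout.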
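Wherever IC50 is given: luminescence signal used as a proxy for viable cells.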

For `C=CC(=O)N1CCN(c2nc(OCC3CCCN3C)nc3c(F)c(-c4nc(N)cc(C)c4C(F)(F)F)c(Cl)cc23)C(C)C1` (stereo unspecified) + C#Cc1c(F)ccc2cc(O)cc(-c3ncc4c(N5CC6CCC(C5)N6)nc(OCC56CCCN5CC(F)C6)nc4c3F)c12, the IC50 (second compound 0.0316 µM) was < 3.16 nM, the IC50 (second compound 0.1 µM) was < 3.16 nM and the IC50 (second compound 0.316 µM) was < 3.16 nM. The IC50 (second compound 1 µM) was < 3.16 nM, the IC50 (second compound 3.16 µM) was < 3.16 nM and the IC50 (second compound 10 µM) was < 3.16 nM. The viability, T/C (second compound 0.0316 µM, first compound 0.00316 µM) was 17.4%, the viability, T/C (second compound 0.0316 µM, first compound 0.01 µM) was 12.2% and the viability, T/C [1] was 11.1%. The viability, T/C [2] was 12.7%, the viability, T/C [3] was 12.4% and the viability, T/C [4] was 11.7%. It also gave a viability, T/C (second compound 0.1 µM, first compound 0.00316 µM) of 14%, a viability, T/C (second compound 0.1 µM, first compound 0.01 µM) of 12% and a viability, T/C [5] of 9.61%. The viability, T/C [6] was 11.5%, the viability, T/C [7] was 11% and the viability, T/C [8] was 10.9%. For the same molecule, the viability, T/C (second compound 0.316 µM, first compound 0.00316 µM) was 16.3%, the viability, T/C (second compound 0.316 µM, first compound 0.01 µM) was 15.7% and the viability, T/C [9] was 11.2%. It also gave a viability, T/C [10] of 8.83%, a viability, T/C [11] of 13.8% and a viability, T/C [12] of 9.54%. For the same molecule, the viability, T/C (second compound 1 µM, first compound 0.00316 µM) was 20%, the viability, T/C (second compound 1 µM, first compound 0.01 µM) was 12.6% and the viability, T/C [13] was 10.3%. It also gave a viability, T/C [14] of 8.88%, a viability, T/C [15] of 9.02% and a viability, T/C [16] of 8.65%. The viability, T/C (second compound 3.16 µM, first compound 0.00316 µM) was 14%, the viability, T/C (second compound 3.16 µM, first compound 0.01 µM) was 10.2% and the viability, T/C [17] was 8.81%. It also gave a viability, T/C [18] of 7.62%, a viability, T/C [19] of 9.35% and a viability, T/C [20] of 8.07%. It also gave a viability, T/C (second compound 10 µM, first compound 0.00316 µM) of 10.8%, a viability, T/C (second compound 10 µM, first compound 0.01 µM) of 8.76% and a viability, T/C [21] of 8.93%. For the same molecule, the viability, T/C [22] was 9.51%, the viability, T/C [23] was 9.18% and the viability, T/C [24] was 8.52%.
`CC(=O)OC12COC1CC(O)C1(C)C(=O)C(O)C3=C(C)C(OC(=O)C(O)C(NC(=O)OC(C)(C)C)c4ccccc4)CC(O)(C(OC(=O)c4ccccc4)C21)C3(C)C` (stereo unspecified) + C#Cc1c(F)ccc2cc(O)cc(-c3ncc4c(N5CC6CCC(C5)N6)nc(OCC56CCCN5CC(F)C6)nc4c3F)c12 was tested, and the IC50 (second compound 0.0316 µM) was < 31.6 nM, the IC50 (second compound 0.1 µM) was < 31.6 nM and the IC50 (second compound 0.316 µM) was < 31.6 nM. For the same molecule, the IC50 (second compound 1 µM) was < 31.6 nM, the IC50 (second compound 3.16 µM) was < 31.6 nM and the IC50 (second compound 10 µM) was < 31.6 nM. The viability, T/C [1] was 44.2%, the viability, T/C [2] was 43% and the viability, T/C [3] was 53.7%. It also gave a viability, T/C [4] of 60%, a viability, T/C (second compound 0.0316 µM, first compound 3.16 µM) of 66.5% and a viability, T/C (second compound 0.0316 µM, first compound 10 µM) of 65.3%. The viability, T/C [5] was 45.7%, the viability, T/C [6] was 40.1% and the viability, T/C [7] was 53.2%. The viability, T/C [8] was 56.7%, the viability, T/C (second compound 0.1 µM, first compound 3.16 µM) was 64.5% and the viability, T/C (second compound 0.1 µM, first compound 10 µM) was 59.4%. The viability, T/C [9] was 34.9%, the viability, T/C [10] was 37.8% and the viability, T/C [11] was 45.4%. The viability, T/C [12] was 49.1%, the viability, T/C (second compound 0.316 µM, first compound 3.16 µM) was 60% and the viability, T/C (second compound 0.316 µM, first compound 10 µM) was 43.8%. It also gave a viability, T/C [13] of 26.7%, a viability, T/C [14] of 24.8% and a viability, T/C [15] of 31.1%. It also gave a viability, T/C [16] of 37%, a viability, T/C (second compound 1 µM, first compound 3.16 µM) of 43.8% and a viability, T/C (second compound 1 µM, first compound 10 µM) of 30.8%. It also gave a viability, T/C [17] of 16.1%, a viability, T/C [18] of 16.4% and a viability, T/C [19] of 19.9%. For the same molecule, the viability, T/C [20] was 20.5%, the viability, T/C (second compound 3.16 µM, first compound 3.16 µM) was 23.9% and the viability, T/C (second compound 3.16 µM, first compound 10 µM) was 15.2%. For the same molecule, the viability, T/C [21] was 9.08%, the viability, T/C [22] was 7.93% and the viability, T/C [23] was 9.23%. For the same molecule, the viability, T/C [24] was 8.41%, the viability, T/C (second compound 10 µM, first compound 3.16 µM) was 9.25% and the viability, T/C (second compound 10 µM, first compound 10 µM) was 5.64%.
With `CCc1c2c(nc3ccc(O)cc13)-c1cc3c(c(=O)n1C2)COC(=O)[C@]3(O)CC` + C#Cc1c(F)ccc2cc(O)cc(-c3ncc4c(N5CC6CCC(C5)N6)nc(OCC56CCCN5CC(F)C6)nc4c3F)c12 the IC50 (second compound 0.0316 µM) was 16.1 nM, the IC50 (second compound 0.1 µM) was 11.7 nM and the IC50 (second compound 0.316 µM) was 2.33 nM. For the same molecule, the IC50 (second compound 1 µM) was < 0.949 nM, the IC50 (second compound 3.16 µM) was < 0.949 nM and the IC50 (second compound 10 µM) was < 0.949 nM. For the same molecule, the viability, T/C (second compound 0.0316 µM, first compound 0.000949 µM) was 82.4%, the viability, T/C (second compound 0.0316 µM, first compound 0.003 µM) was 67.4% and the viability, T/C (second compound 0.0316 µM, first compound 0.00949 µM) was 56.8%. It also gave a viability, T/C (second compound 0.0316 µM, first compound 0.03 µM) of 44.4%, a viability, T/C (second compound 0.0316 µM, first compound 0.0949 µM) of 23.6% and a viability, T/C (second compound 0.0316 µM, first compound 0.3 µM) of 6.15%. For the same molecule, the viability, T/C (second compound 0.1 µM, first compound 0.000949 µM) was 73.3%, the viability, T/C (second compound 0.1 µM, first compound 0.003 µM) was 61% and the viability, T/C (second compound 0.1 µM, first compound 0.00949 µM) was 54.8%. It also gave a viability, T/C (second compound 0.1 µM, first compound 0.03 µM) of 38.6%, a viability, T/C (second compound 0.1 µM, first compound 0.0949 µM) of 22.4% and a viability, T/C (second compound 0.1 µM, first compound 0.3 µM) of 7.9%. It also gave a viability, T/C (second compound 0.316 µM, first compound 0.000949 µM) of 50.4%, a viability, T/C (second compound 0.316 µM, first compound 0.003 µM) of 53.3% and a viability, T/C (second compound 0.316 µM, first compound 0.00949 µM) of 41%. The viability, T/C (second compound 0.316 µM, first compound 0.03 µM) was 29.8%, the viability, T/C (second compound 0.316 µM, first compound 0.0949 µM) was 20.3% and the viability, T/C (second compound 0.316 µM, first compound 0.3 µM) was 7.35%. For the same molecule, the viability, T/C (second compound 1 µM, first compound 0.000949 µM) was 30.5%, the viability, T/C (second compound 1 µM, first compound 0.003 µM) was 29.1% and the viability, T/C (second compound 1 µM, first compound 0.00949 µM) was 26.7%. The viability, T/C (second compound 1 µM, first compound 0.03 µM) was 20.9%, the viability, T/C (second compound 1 µM, first compound 0.0949 µM) was 13.9% and the viability, T/C (second compound 1 µM, first compound 0.3 µM) was 6.24%. It also gave a viability, T/C (second compound 3.16 µM, first compound 0.000949 µM) of 20%, a viability, T/C (second compound 3.16 µM, first compound 0.003 µM) of 15.3% and a viability, T/C (second compound 3.16 µM, first compound 0.00949 µM) of 15.6%. For the same molecule, the viability, T/C (second compound 3.16 µM, first compound 0.03 µM) was 11.2%, the viability, T/C (second compound 3.16 µM, first compound 0.0949 µM) was 8.88% and the viability, T/C (second compound 3.16 µM, first compound 0.3 µM) was 4.31%. For the same molecule, the viability, T/C (second compound 10 µM, first compound 0.000949 µM) was 11%, the viability, T/C (second compound 10 µM, first compound 0.003 µM) was 10% and the viability, T/C (second compound 10 µM, first compound 0.00949 µM) was 10.1%. It also gave a viability, T/C (second compound 10 µM, first compound 0.03 µM) of 6.59%, a viability, T/C (second compound 10 µM, first compound 0.0949 µM) of 4.97% and a viability, T/C (second compound 10 µM, first compound 0.3 µM) of 3.6%.
